Tests used:
NCI-H1155 [1] = assay: Cytotoxicity against human NCI-H1155 cells expressing pLVX empty vector incubated for 4 days; type: functional, cell-based; conditions: NCI-H1155, 96 h
NCI-H1155 [2] = assay: Cytotoxicity against human NCI-H1155 cells expressing CYP4F11 incubated for 4 days in presence of sodium oleate; type: functional, cell-based; conditions: NCI-H1155, 96 h
NCI-H1155 [3] = assay: Cytotoxicity against human NCI-H1155 cells incubated for 4 days in presence of sodium oleate; type: functional, cell-based; conditions: NCI-H1155, 96 h
NCI-H2122 [4] = assay: Cytotoxicity against human NCI-H2122 cells incubated for 4 days; type: functional, cell-based; conditions: NCI-H2122, 96 h
[5] = molecular target: T1, Acyl-CoA desaturase 1 (Mus musculus) (UniProt P13516); assay: Inhibition of SCD1 in CD1 mouse liver at 100 nM using stearoyl [9,10-3H] CoA as substrate and NADPH incubated for 2 hrs by scintillation counting method
T1 sequence (whole entry): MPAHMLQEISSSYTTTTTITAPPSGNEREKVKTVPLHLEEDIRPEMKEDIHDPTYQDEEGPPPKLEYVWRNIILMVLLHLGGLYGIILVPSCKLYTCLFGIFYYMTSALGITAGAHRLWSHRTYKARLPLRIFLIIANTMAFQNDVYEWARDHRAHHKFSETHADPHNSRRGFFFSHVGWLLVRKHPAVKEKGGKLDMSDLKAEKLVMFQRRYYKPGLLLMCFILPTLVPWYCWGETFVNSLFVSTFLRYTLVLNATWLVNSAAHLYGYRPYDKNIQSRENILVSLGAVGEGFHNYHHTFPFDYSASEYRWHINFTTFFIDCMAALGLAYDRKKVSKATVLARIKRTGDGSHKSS

NCI-H1155 [6] = assay: Cytotoxicity against human NCI-H1155 cells expressing CYP4F11 incubated for 4 days; type: functional, cell-based; conditions: NCI-H1155, 96 h
HCC44 [7] = assay: Cytotoxicity against human HCC44 cells; type: functional, cell-based
[8] = Half life in mouse liver S9 fraction by LC-MS/MS analysis; type: ADME, subcellular
HCC4017 = assay: Cytotoxicity against human HCC4017 cells; type: functional, cell-based
NCI-H2009 = assay: Cytotoxicity against human NCI-H2009 cells; type: functional, cell-based
NCI-H2122 [9] = assay: Cytotoxicity against human NCI-H2122 cells; type: functional, cell-based
HCC95 [10] = assay: Cytotoxicity against human HCC95 cells; type: functional, cell-based
NCI-H460 [11] = assay: Cytotoxicity against human NCI-H460 cells at > 50 uM relative to control; type: functional
NCI-H460 [12] = assay: Cytotoxicity against human NCI-H460 cells; type: functional, cell-based
NCI-H2122 [13] = assay: Cytotoxicity against human NCI-H2122 cells at > 50 uM relative to control; type: functional
[14] = Cytotoxicity against human NCI-H1819 cells; type: functional, cell-based
NCI-H1395 = assay: Cytotoxicity against human NCI-H1395 cells; type: functional, cell-based
[15] = Cytotoxicity against human HCC366 cells; type: functional, cell-based
HCC95 [16] = assay: Cytotoxicity against human HCC95 cells at > 50 uM relative to control; type: functional
NCI-H1993 = assay: Cytotoxicity against human NCI-H1993 cells; type: functional, cell-based
NCI-H1155 [17] = assay: Cytotoxicity against human NCI-H1155 cells; type: functional, cell-based
[18] = Cytotoxicity against human NCI-H2073 cells; type: functional, cell-based
HCC44 [19] = assay: Cytotoxicity against human HCC44 cells at > 50 uM relative to control; type: functional
[20] = Half life in human NCI-H1155 cells at 500 nM by LC-MS/MS analysis; type: ADME, cell-based
[21] = Drug level in human NCI-H1155 cells after 4 hrs by LC-MS/MS analysis; type: ADME, cell-based; conditions: nci-h1155, 4 h
CYP4F11 = molecular target: T2, CYP4F11 (Homo sapiens, UniProt Q9HBI6); assay: Drug metabolism in human NCI-H1155 cells assessed as CYP4F11-meidated O-demethylation by measuring half life at 500 nM by LC-MS/MS analysis; type: ADME, cell-based
T2 sequence (Q9HBI6 whole entry): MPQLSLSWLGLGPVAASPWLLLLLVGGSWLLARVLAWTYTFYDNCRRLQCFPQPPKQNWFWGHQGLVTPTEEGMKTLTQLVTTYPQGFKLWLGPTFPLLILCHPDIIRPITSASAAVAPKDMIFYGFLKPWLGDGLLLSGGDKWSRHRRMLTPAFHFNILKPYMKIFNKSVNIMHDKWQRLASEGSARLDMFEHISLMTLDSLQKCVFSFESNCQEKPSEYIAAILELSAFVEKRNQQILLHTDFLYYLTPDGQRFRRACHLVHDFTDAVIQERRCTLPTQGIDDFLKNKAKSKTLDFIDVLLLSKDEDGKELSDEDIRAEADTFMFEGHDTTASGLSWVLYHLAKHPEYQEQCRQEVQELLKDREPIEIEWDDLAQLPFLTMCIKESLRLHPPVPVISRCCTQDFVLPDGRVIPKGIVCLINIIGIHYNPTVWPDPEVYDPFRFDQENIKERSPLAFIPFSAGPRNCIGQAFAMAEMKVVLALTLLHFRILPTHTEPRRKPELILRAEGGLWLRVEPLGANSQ

NCI-H1155 [22] = assay: Ratio of EC50 for cytotoxicity against human NCI-H1155 cells expressing CYP4F11 incubated for 4 days in presence of sodium oleate to EC50 for cytotoxicity against human NCI-H1155 cells expressing CYP4F11 incubated for 4 days in absence of sodium oleate; type: functional
[23] = molecular target: T1, Acyl-CoA desaturase 1 (Mus musculus); assay: Inhibition of SCD1 in CD1 mouse liver at 3 uM using stearoyl [9,10-3H] CoA as substrate and NADPH incubated for 2 hrs by scintillation counting method

SMILES	EC50 (NCI-H1155 [1]) [µM]	EC50 (NCI-H1155 [2]) [µM]	EC50 (NCI-H1155 [3]) [µM]	EC50 (NCI-H2122 [4]) [µM]	EC50 (NCI-H1155 [6]) [µM]	other results
CC(CNC(=O)C(=O)Nc1ccc(Cl)cc1)c1ccc(O)cc1 (configuration not stated)	> 50	> 50	> 50	4	> 50	inhibition [5]: 28%
COc1ccc(CCNC(=O)C(=O)Nc2ccc(Cl)cc2)cc1	36	> 50	> 50	0.22	0.67	EC50 (HCC44 [7]): < 1 µM; half-life [8]: 0.117 h; EC50 (HCC4017): > 10 µM; EC50 (NCI-H2009): > 10 µM; EC50 (NCI-H2122 [9]): < 1 µM; EC50 (HCC95 [10]): < 1 µM; Activity (NCI-H460 [11]): >95%; EC50 (NCI-H460 [12]): < 1 µM; Activity (NCI-H2122 [13]): >95%; EC50 [14]: > 10 µM; EC50 (NCI-H1395): > 10 µM; EC50 [15]: > 10 µM; Activity (HCC95 [16]): >95%; EC50 (NCI-H1993): > 10 µM; EC50 (NCI-H1155 [17]): > 10 µM; EC50 [18]: > 10 µM; Activity (HCC44 [19]): >95%
O=C(NCCc1ccc(O)cc1)c1ccc2ccccc2n1	18	35	46	> 50	17	inhibition [5]: 31%
COc1ccc(CNC(=O)C(=O)Nc2ccc(Cl)cc2)cc1						half-life at 0.5 µM [20]: > 48 h; Drug uptake [21]: 340 nM
COc1ccc(C(C)CNC(=O)C(=O)Nc2ccc(Cl)cc2)cc1 (configuration not stated)	> 50	> 50	> 50	3.66	> 50	
CC(Cc1ccc(O)cc1)NC(=O)C(=O)Nc1ccc(Cl)cc1 (configuration not stated)	11.7	13	10	5.1	11.2	inhibition [5]: 24%
O=C(NCCc1ccc(O)cc1)NC(=O)c1ccc(COc2ccccc2)cc1	0.007	6.4	12	0.011	0.051	half-life [8]: > 4 h; inhibition [5]: 96%
COc1ccc(CC(C)NC(=O)C(=O)Nc2ccc(Cl)cc2)cc1 (configuration not stated)	9.5	7.6	12	3.53	16.4	
O=C(NCCc1ccc(O)cc1)C(=O)Nc1ccc(Cl)cc1	0.39	21	37	0.26	0.37	half-life [8]: 1.18 h
C#CCOc1ccc(C(=O)c2ccc(NC(=O)C(=O)NCCc3ccc(OC)cc3)cc2)cc1	8.5	> 50	16	0.028	0.12	half-life at 0.5 µM [20]: > 48 h; half-life at 0.5 µM (CYP4F11): 28 h; Drug uptake [21]: 870 nM
O=C(NCCc1ccc(O)cc1)C(=O)NC1CC1	> 50	> 50	> 50	> 50	> 50	inhibition [5]: 0%
COc1ccc(CCNC(=O)NC(=O)c2ccc(COc3ccccc3)cc2)cc1	> 50	3.6	> 50	0.01	0.034	half-life at 0.5 µM [20]: > 48 h; half-life [8]: 2.63 h; half-life at 0.5 µM (CYP4F11): 7.5 h; Drug uptake [21]: 1670 nM; Ratio EC50 (NCI-H1155 [22]): 100
COc1ccc(CCNC(=O)C(=O)Nc2ccncc2)cc1				> 50		
COc1ccc(CCNC(=O)C(=O)Nc2cccc(Cl)c2)cc1				0.38		
COc1ccc(CCNC(=O)c2ccc3ccccc3n2)cc1	> 50	> 50	> 50	> 50	> 50	
CCOc1ccc(CCNC(=O)C(=O)Nc2ccc(Cl)cc2)cc1				> 50		

SMILES	EC50 (NCI-H1155 [1]) [µM]	EC50 (NCI-H1155 [2]) [µM]	EC50 (NCI-H1155 [3]) [µM]	EC50 (NCI-H2122 [4]) [µM]	EC50 (NCI-H1155 [6]) [µM]	other results
COc1ccc(CCNC(=O)C(=O)Nc2cc(F)cc(Cl)c2)cc1				> 50		
COc1ccc(CCCCNC(=O)c2ccc(Cl)cc2)cc1				3.27		
COc1ccc(CCNC(=O)C(=O)Nc2ccc(Br)cn2)cc1				0.29		
COc1ccc(CCNC(=O)c2nc3ccccc3o2)cc1				30		
COc1ccc(CCNC(=O)C(=O)NC2CC2)cc1	> 50	> 50	> 50	> 50	> 50	half-life at 0.5 µM [20]: > 48 h; half-life at 0.5 µM (CYP4F11): 4.7 h; Drug uptake [21]: 80 nM
COc1ccc(CCNC(=O)C(=O)Nc2ccc(C(=O)c3ccc(OC)cc3)cc2)cc1				0.081		
C#CCOc1ccc(C(=O)c2ccc(NC(=O)C(=O)NCCc3ccc(O)cc3)cc2)cc1	0.008	> 50	> 50	0.058	0.21	inhibition [23]: > 98%; half-life [8]: 0.217 h
COc1ccc(CCNC(=O)c2ccc3ccccc3c2O)cc1				36		
COc1ccc(CCNC(=O)NC(=O)c2cccc(-c3ccccc3)c2)cc1				> 50		
COc1ccc(CCNC(=O)NC(=O)c2ccc(C(O)c3ccccc3)cc2)cc1 (configuration not stated)				0.097		
COc1ccc(CCNC(=O)C(=O)Nc2cccc(F)n2)cc1				> 50		
Cc1ccccc1C(=O)c1ccc(C(=O)NC(=O)NCCc2ccc(O)cc2)cc1				1.5		inhibition [5]: 57%
COc1ccc(CCNC(=O)C(=O)Nc2ccc(Cl)c(F)c2)cc1				0.29		
COc1ccc(CCNC(=O)NC(=O)c2ccc(C(=O)N3CCOCC3)cc2)cc1				> 50		
COc1ccc(CCNC(=O)C(=O)Nc2cncc(C)c2)cc1				2.6		
COc1ccc(CCN(C)C(=O)C(=O)Nc2ccc(Cl)cc2)cc1				10.5		
